Measured values taken from PMC12399242 (Acta Pharmaceutica Sinica. B, 2025).
Where a name gives a salt, the structure may show the parent alone. Read-outs that look alike come from different tables or passages of the source.

What was measured:
[1] = tested on: HIV-1 K103N + Y181C (RES056); assay: Antiviral activity against HIV-1 double mutant K103N + Y181C (RES056) in MT-4 cells; type: cell-based
HIV-1 E138K = assay: Antiviral activity against HIV-1 mutant E138K in MT-4 cells; type: cell-based
HIV-1 K103N = assay: Antiviral activity against HIV-1 mutant K103N in MT-4 cells; type: cell-based
HIV-1 Y188L [2] = assay: Antiviral activity against HIV-1 mutant Y188L in MT-4 cells; type: cell-based
HIV-1 F227L + V106A [3] = assay: microbe, parasite or virus in culture; type: cell-based
HIV-1 Y181C = assay: Antiviral activity against HIV-1 mutant Y181C in MT-4 cells; type: cell-based
in vitro = conditions: human, CC50
Excerpt: (§1) Inspired by our previous research on heteroaromatic-biphenyl-DAPYs[15], the 4-cyanophenyl group on the biphenyl moiety was replaced with a privileged 4-pyridyl group for further evaluation.

MT-4 cells [4] = assay: in vitro
Excerpt: as §1

HIV-1 L100I = assay: Antiviral activity against HIV-1 mutant L100I in MT-4 cells; type: cell-based
HIV-1 (IIIB) [5] = assay: microbe, parasite or virus in culture; type: cell-based; conditions: for EC50: mean ± SD, n ≥ 3; for SI (IIIB): selectivity index, ratio CC50/EC50
Excerpt: as §1

WT HIV-1 RT = WT HIV-1 RT (Human immunodeficiency virus type 1 group M subtype B, UniProt P03366); assay: Inhibition of WT HIV-1 RT polymerase activity
Experimental: The anti-HIV-1 activity of A1–A24 and B1–B22 at the cellular or enzyme level were evaluated following our previously reported method[15].

CYP2D6 = target: T1, CYP2D6 (Homo sapiens, UniProt P10635); assay: CYP enzyme inhibition assay, CYP2D6; type: in vitro ADME; conditions: IC50 CYP2D6, human liver microsomes
T1 construct: An incubation system of human liver microsomes (20 μL, 1.5 mg/mL); from tissue; host or cells: human liver microsomes
Experimental: An incubation system of human liver microsomes (20 μL, 1.5 mg/mL), 20 μL probe substrates, and 50 μL test compound in Tris (0.1 mol/L) was pre-incubated at 37 °C for 10 min, and then initiated by adding NADPH (10 μL, 10 mmol/L). The system was incubated for another 15 min and subsequently terminated by 100 μL MeCN containing internal standard (propranolol, nadolol). Finally, the sample was centrifugated to obtain the supernatant for LC‒MS/MS analysis.

[6] = human liver microsomes; cited from earlier work
[7] = comparison values; cited from earlier work
MT-4 cells [8] = conditions: cited from earlier work
CYP3A4-M = CYP3A4-M (Homo sapiens, UniProt P08684); conditions: read-out: IC50 CYP3A4-M; cited from earlier work
HIV-1 (IIIB) [9] = conditions: earlier compounds of Fig. 1 / introduction, cited from earlier work; for EC50: WT HIV-1
HIV-1 Y188L [10] = conditions: cited from earlier work
[11] = tested on: HIV-1 K103N + Y181C (RES056); conditions: cited from earlier work
HIV-1 F227L + V106A [12] = conditions: cited from earlier work
[13] = Human immunodeficiency virus 1, MT4, read-out: EC50 K103N + Y181C
[14] = Human immunodeficiency virus 1, MT4, read-out: EC50 E138K
[15] = Human immunodeficiency virus 1, MT4, read-out: EC50 K103N
[16] = Human immunodeficiency virus 1, MT4, read-out: EC50 Y188L
[17] = Human immunodeficiency virus 1, MT4, read-out: EC50 F227L + V106A
[18] = Human immunodeficiency virus 1, MT4, read-out: EC50 Y181C
[19] = Human immunodeficiency virus 1, MT4, read-out: EC50 L100I
[20] = Human immunodeficiency virus 1, IIIB, MT4, WT HIV-1, protection of MT-4 cells against HIV-induced cytopathogenicity
[21] = WT HIV-1, protection of MT-4 cells against HIV-induced cytopathogenicity
[22] = RES056, MT-4 cells, mean ± SD, n ≥ 3, read-out: EC50 K103N + Y181C
[23] = MT-4 cells, mean ± SD, n ≥ 3, read-out: EC50 E138K
[24] = MT-4 cells, mean ± SD, n ≥ 3, read-out: EC50 K103N
[25] = MT-4 cells, mean ± SD, n ≥ 3, read-out: EC50 Y188L
[26] = MT-4 cells, mean ± SD, n ≥ 3, read-out: EC50 F227L + V106A
[27] = MT-4 cells, mean ± SD, n ≥ 3, read-out: EC50 Y181C
[28] = uninfected MT-4 cells, mean ± SD, n ≥ 3
[29] = MT-4 cells, mean ± SD, n ≥ 3, read-out: EC50 L100I
[30] = earlier compounds of Fig. 1 / introduction

T1 sequence (P10635 whole entry): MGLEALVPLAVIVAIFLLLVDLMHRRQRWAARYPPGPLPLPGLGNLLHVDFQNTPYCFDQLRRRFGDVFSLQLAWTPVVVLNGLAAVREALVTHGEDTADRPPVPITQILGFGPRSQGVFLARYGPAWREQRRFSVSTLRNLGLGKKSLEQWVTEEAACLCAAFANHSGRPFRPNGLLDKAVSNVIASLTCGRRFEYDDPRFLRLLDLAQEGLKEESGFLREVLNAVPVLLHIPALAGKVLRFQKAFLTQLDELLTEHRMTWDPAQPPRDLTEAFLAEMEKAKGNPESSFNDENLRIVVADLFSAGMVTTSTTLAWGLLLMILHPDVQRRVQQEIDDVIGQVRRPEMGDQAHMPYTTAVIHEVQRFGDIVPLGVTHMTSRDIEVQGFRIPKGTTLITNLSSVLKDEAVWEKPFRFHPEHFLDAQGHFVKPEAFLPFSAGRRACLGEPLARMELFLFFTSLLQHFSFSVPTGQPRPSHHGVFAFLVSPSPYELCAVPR
CYP3A4-M, sequence (P08684 whole entry): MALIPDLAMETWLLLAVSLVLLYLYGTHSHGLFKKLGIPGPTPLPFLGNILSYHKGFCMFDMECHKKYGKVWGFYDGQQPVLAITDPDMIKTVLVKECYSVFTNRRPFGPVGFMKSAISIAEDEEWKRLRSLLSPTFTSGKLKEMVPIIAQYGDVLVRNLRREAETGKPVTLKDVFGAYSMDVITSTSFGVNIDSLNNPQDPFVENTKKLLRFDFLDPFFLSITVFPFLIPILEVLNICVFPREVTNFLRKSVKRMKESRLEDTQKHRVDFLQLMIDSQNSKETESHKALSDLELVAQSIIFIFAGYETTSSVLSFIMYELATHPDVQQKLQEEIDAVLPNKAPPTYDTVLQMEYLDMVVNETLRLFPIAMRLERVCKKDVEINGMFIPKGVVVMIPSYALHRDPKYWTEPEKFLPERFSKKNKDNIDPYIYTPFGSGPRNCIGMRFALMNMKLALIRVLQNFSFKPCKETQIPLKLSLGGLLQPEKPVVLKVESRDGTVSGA

Row | SMILES | EC50 [1, 13] | EC50 (HIV-1 E138K; [14]) | EC50 (HIV-1 K103N; [15]) | EC50 (HIV-1 Y188L [2]; [16]) | EC50 (HIV-1 F227L + V106A [3]; [17]) | EC50 (HIV-1 Y181C; [18]) | CC50 (in vitro) | CC50 (MT-4 cells [4]; human) | EC50 (HIV-1 L100I; [19]) | EC50 (HIV-1 (IIIB) [5]; [20]) | EC50 (HIV-1 (IIIB) [5]; [21]) | SI (IIIB) (HIV-1 (IIIB) [5]) | IC50 (WT HIV-1 RT) | EC50 (HIV-1 (IIIB) [9]) | other results
1 | N#Cc1ccc(Nc2ncc(F)c(Oc3ccc(-c4ccc(C#N)cc4)cc3F)n2)cc1 [A1, 4′-((2-((4-Cyanophenyl)amino)-5-fluoropyrimidin-4-yl)oxy)-3′-fluoro-[1,1′-biphenyl]-4-carbonitrile] | > 47000 nM | 28 ± 12 nM | 52 ± 42 nM | > 47000 nM | > 47000 nM | 306 ± 117 nM | > 45000 nM | > 47000 nM | 174 ± 49 nM | ≤ 5.3 nM | 4.2 ± 1.4 nM | >10,870 | 54 ± 9.4 nM |  | 
2 | COc1cc(-c2ccc(C#N)cc2)ccc1Oc1nc(Nc2ccc(C#N)cc2)ncc1F [A4, 4′-((2-((4-Cyanophenyl)amino)-5-fluoropyrimidin-4-yl)oxy)-3′-methoxy-[1,1′-biphenyl]-4-carbonitrile] | > 45700 nM | 7.8 ± 2.3 nM | 9.4 ± 2.7 nM | 1370 ± 206 nM | ≥ 1600 nM | 48 ± 14 nM | > 45000 nM | > 46000 nM | 41 ± 25 nM | ≤ 5.3 nM | 3 ± 1.1 nM | >16,000 | 46 ± 4.6 nM |  | 
3 | N#Cc1ccc(Nc2ncc(F)c(Nc3ccc(-c4ccc(C#N)cc4)cc3F)n2)cc1 [A7, 4′-((2-((4-Cyanophenyl)amino)-5-fluoropyrimidin-4-yl)amino)-3′-fluoro-[1,1′-biphenyl]-4-carbonitrile] | > 47100 nM | 35 ± 17 nM | 68 ± 38 nM | > 47100 nM | > 47100 nM | 259 ± 165 nM | > 45000 nM | > 47000 nM | 5440 ± 2400 nM |  |  | >25,806 | 28 ± 4.7 nM |  | 
4 | COc1cc(-c2ccncc2)ccc1Oc1nc(Nc2ccc(C#N)cc2)ncc1F [A16, 4-((5-Fluoro-4-(2-methoxy-4-(pyridin-4-yl)phenoxy)pyrimidin-2-yl)amino)benzonitrile] | > 48400 nM | 13 ± 3.4 nM | 12 ± 3.9 nM | 1520 ± 556 nM | 1230 ± 556 nM | 104 ± 17 nM | > 45000 nM | > 48000 nM | 39 ± 9.7 nM | ≤ 5.3 nM | 3.1 ± 2.2 nM | >15,094 | 34 ± 2.4 nM |  | 
5 | COc1ccc2c(c1)[C@]13CCCC[C@@H]1[C@H](C2)N(C)CC3 [Dextromethorphan, reference compound] |  |  |  |  |  |  |  |  |  |  |  |  |  |  | IC50 (CYP2D6): 224 nM
6 | O=C1Nc2ccc(Cl)cc2[C@@](C#CC2CC2)(C(F)(F)F)O1 [EFV, reference compound] |  |  |  |  |  |  |  |  |  |  | 3.8 ± 1 nM | >1618 |  |  | EC50 [1, 22]: 314 ± 146 nM; EC50 (HIV-1 E138K; [23]): 5.4 ± 1.6 nM; EC50 (HIV-1 K103N; [24]): 60 ± 19 nM; EC50 (HIV-1 Y188L [2]; [25]): 244 ± 95 nM; EC50 (HIV-1 F227L + V106A [3]; [26]): 181 ± 89 nM; EC50 (HIV-1 Y181C; [27]): 6.3 ± 2.5 nM; CC50 (MT-4 cells [4]; [28]): > 6300 nM; EC50 (HIV-1 L100I; [29]): 24 ± 9.5 nM
7 | Cc1cc(C#N)cc(C)c1Oc1nc(Nc2ccc(C#N)cc2)nc(N)c1Br [ETR, etravirine, reference compound] | 44 ± 23 nM | 7.6 ± 2.3 nM | 2.8 ± 0.7 nM |  | 12 ± 9.4 nM | 13 ± 2.8 nM | > 4600 nM |  | 4.4 ± 1.6 nM | 3.2 ± 0.7 nM |  |  |  |  | CLint(liver) [6]: 19.0 mL/min/kg; CLint(mic) [6]: 21.1 µL/min/mg; t1/2 [6]: 65.5 min; F (oral bioavailability) [7]: undetectable; CC50 (MT-4 cells [8]; introduction): ~5000 nM; IC50 (CYP3A4-M): 41300 nM
8 | Cc1ccnc2c1NC(=O)c1cccnc1N2C1CC1 [NVP, reference compound] |  |  |  |  |  |  |  |  |  |  | 188 ± 68 nM |  |  |  | EC50 [1, 22]: > 15000 nM; EC50 (HIV-1 E138K; [23]): 143 ± 38 nM; EC50 (HIV-1 K103N; [24]): 5860 ± 2780 nM; EC50 (HIV-1 Y188L [2]; [25]): > 15000 nM; EC50 (HIV-1 F227L + V106A [3]; [26]): > 15000 nM; EC50 (HIV-1 Y181C; [27]): 9010 ± 2630 nM; CC50 (MT-4 cells [4]; [28]): > 15000 nM; EC50 (HIV-1 L100I; [29]): 1800 ± 1430 nM
9 | Cc1cc(/C=C/C#N)cc(C)c1Nc1ccnc(Nc2ccc(C#N)cc2)n1 [RPV · HCl, rilpivirine HCl] |  |  |  |  |  |  |  |  |  |  |  |  |  |  | F (oral bioavailability) [7]: 32%
10 | Cc1cc(/C=C/C#N)cc(C)c1Nc1ccnc(Nc2ccc(C#N)cc2)n1 [RPV, rilpivirine] |  |  |  |  |  |  |  |  |  |  |  |  |  | 1 nM | CLint(liver) [6]: 97.6 mL/min/kg; CLint(mic) [6]: 108.4 µL/min/mg; t1/2 [6]: 12.8 min; CC50 (MT-4 cells [8]; introduction): ~5000 nM
11 | N#Cc1ccc(Nc2nccc(Nc3c(F)cc(-c4ccc(C#N)cc4)cc3F)n2)cc1 [compound 4] |  |  |  |  |  |  |  |  |  |  |  |  |  | 1.3 nM | SI (HIV-1 (IIIB) [9]): > 238,095; CC50 (MT-4 cells [8]; [30]): > 294000 nM
12 | CN(c1ccnc(Nc2ccc(C#N)cc2)n1)c1c(F)cc(-c2ccc(C#N)cc2)cc1F [compound 5] |  |  |  |  |  |  |  |  |  |  |  |  |  | 6.2 nM | SI (HIV-1 (IIIB) [9]): 24,067; CC50 (MT-4 cells [8]; [30]): 148000 nM
13 | Cc1cnc(Nc2ccc(C#N)cc2)nc1Nc1c(F)cc(-c2ccc(C#N)cc2)cc1F [compound 6, reference compound] | > 2000 nM | 8.3 ± 1.5 nM | 5.4 ± 1.8 nM | > 2000 nM | > 2000 nM | 11 ± 1.9 nM | > 285000 nM |  | 16 ± 5.3 nM | 1.4 ± 0.3 nM |  | >208,333 |  | 1.4 nM | EC50 (HIV-1 Y188L [10]): > 2000 nM; SI (HIV-1 (IIIB) [9]): > 208,333; EC50 [11]: > 2000 nM; CC50 (MT-4 cells [8]; [30]): > 285000 nM; EC50 (HIV-1 F227L + V106A [12]): > 2000 nM
